{"source": "patent US8586755B2", "about": "“Substituted nicotinamides as KCNQ2/3 modulators” (Grünenthal GmbH, priority 2009, dated 2013)", "key": {"[1]": {"target": "T1, KCNQ2/3 channels (Homo sapiens, UniProt O43525+O43526)", "T1 construct": "expressed in transfected cells", "assay": "Fluorescence assay using a voltage sensitive dye (fluorimetry)", "format": "cell-based", "details": "CHO-K1 cells expressing KCNQ2/3 channels; for pEC50: agonistic activity; for Emax / Fluorimetry % efficacy (retigabine 50 μM = 100%): retigabine 50 μM = 100%; for Emax: read-out: Fluorimetry % efficacy (retigabine 50 μM = 100%)", "method_in_brief": "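Agonist EC50s come from the F2 vs F1 fluorescence comparison, F2 taken at the peak after KCl depolarisation (92 mM final) and F1 after 30 min compound exposure at room temperature. Assay uses KCNQ2/3-expressing CHO-K1 cells stained 45 min with a red voltage-sensitive dye in pH 7.4 ES buffer.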"}, "[2]": {"test_system": "Sprague-Dawley rats", "assay": "Low-intensity tail flick in the rat", "format": "in vivo", "details": "for inhibition in vivo at 10 mg/kg / inhibition in vivo at 21.5 mg/kg / ED50 / inhibition in vivo at 4.64 mg/kg: po; for inhibition in vivo at 10 mg/kg / inhibition in vivo at 21.5 mg/kg / inhibition in vivo at 4.64 mg/kg: read-out: Low-intensity tail flick rat p.o. % effect (dose [mg/kg])", "description": "Low-Intensity Tail Flick in the Rat\nThe antinociceptive effectiveness of the test substance towards an acute, noxious thermal stimulus was studied in the focal ray (tail flick) test in the rat according to the method of D'Amour and Smith (J. Pharm. Exp. Ther. 72, 74 79 (1941)). Male Sprague-Dawley rats (breeder: Janvier, Le Genest St. Isle, France) weighing from 200 to 250 g were used for this purpose. The animals were accommodated individually in special test compartments and the base of the tail was exposed to the focused ray of an analgesia meter (model 2011, Rhema Labortechnik, Hofheim, Germany). 10 animals were used per group. Before a substance according to the invention was administered, the withdrawal latency (time from switching on of the focal ray to the sudden withdrawal of the tail) was determined twice at an interval of five minutes and the mean value was defined as the control latency time. The intensity of the focal ray was chosen so that the control latency time was 7 to 9 seconds. Measurement of the withdrawal latency was then repeated 10, 20, 30 and 60 minutes after peroral administration of substance. The antinociceptive action of the test substance was determined as the increase in the withdrawal latency time according to the following formula: MPE[%]=[(T1−T0)/(T2−T0)]×100 where: T0=control latency time before administration of substance, T1=latency time after administration of substance, T2=maximum exposure time to the focal ray (30 seconds), MPE=maximum possible effect.\nVariance analysis (repeated measures ANOVA) was used to test for statistically significant differences between the substance group and the vehicle group. The level of significance was set at ≦0.05."}}, "note": "pEC50: −log10 of the molar value."}
{"smiles": "O=C(NCC1CC2CCC1C2)c1cccnc1SCCCc1cccc(C(F)(F)F)c1", "note": "(stereo not shown) [compound 27, N-(5-Bicyclo[2.2.1]heptanyl-methyl)-2-[3-[3-(trifluoromethyl)phenyl]-propylsulfanyl]-pyridine-3-carboxylic acid amide]", "values": [{"measurement": "pEC50", "setting": "[1]", "value": 7.07}, {"measurement": "Emax", "setting": "[1]", "value": 210, "unit": "%"}, {"measurement": "inhibition in vivo at 10 mg/kg", "setting": "[2]; MPE", "value": 18, "unit": "%"}]}
{"smiles": "O=C(NCC1CCCCC1)c1cccnc1SCCCc1ccc(F)cc1", "note": "[compound 40, N-(Cyclohexyl-methyl)-2-[3-(4-fluorophenyl)-propylsulfanyl]-pyridine-3-carboxylic acid amide]", "values": [{"measurement": "pEC50", "setting": "[1]", "value": 6.89}, {"measurement": "Emax", "setting": "[1]", "value": 144, "unit": "%"}, {"measurement": "inhibition in vivo at 21.5 mg/kg", "setting": "[2]; dose 21.5 mg/kg, MPE", "value": 26, "unit": "%"}]}
{"smiles": "O=C(NCC1CC2CCC1C2)c1cccnc1SCCCc1ccc(F)cc1", "note": "(stereo not shown) [compound 51]", "values": [{"measurement": "pEC50", "setting": "[1]", "value": 6.70}, {"measurement": "Fluorimetry % efficacy (retigabine 50 μM = 100%)", "setting": "[1]", "value": 192, "unit": "%"}, {"measurement": "Low-intensity tail flick rat p.o. % effect (dose [mg/kg])", "setting": "[2]; dose 21.5 mg/kg, MPE", "value": "49 (21.5) %"}]}
{"smiles": "O=C(NCC1CC2CCC1C2)c1cccnc1SCCCc1ccc(C(F)(F)F)c(F)c1", "note": "(stereo not shown) [compound 53, N-(5-Bicyclo[2.2.1]heptanyl-methyl)-2-[3-[3-fluoro-4-(trifluoromethyl)-phenyl]-propylsulfanyl]-pyridine-3-carboxylic acid amide]", "values": [{"measurement": "pEC50", "setting": "[1]", "value": 6.52}, {"measurement": "Emax", "setting": "[1]", "value": 220, "unit": "%"}, {"measurement": "inhibition in vivo at 10 mg/kg", "setting": "[2]; MPE", "value": 0, "unit": "%"}]}
{"smiles": "O=C(NCC1CC2CCC1C2)c1cccnc1SCCCc1ccc(F)c(C(F)(F)F)c1", "note": "(stereo not shown) [compound 54, N-(5-Bicyclo[2.2.1]heptanyl-methyl)-2-[3-[4-fluoro-3-(trifluoromethyl)-phenyl]-propylsulfanyl]-pyridine-3-carboxylic acid amide]", "values": [{"measurement": "pEC50", "setting": "[1]", "value": 6.88}, {"measurement": "Emax", "setting": "[1]", "value": 240, "unit": "%"}, {"measurement": "inhibition in vivo at 10 mg/kg", "setting": "[2]; MPE", "value": 20, "unit": "%"}]}
{"smiles": "O=C(NCc1ccc(F)cc1)c1cccnc1SCCCc1ccc(F)cc1", "note": "[compound 65, N-[(4-Fluorophenyl)-methyl]-2-[3-(4-fluorophenyl)-propylsulfanyl]-pyridine-3-carboxylic acid amide]", "values": [{"measurement": "pEC50", "setting": "[1]", "value": 7.40}, {"measurement": "Emax", "setting": "[1]", "value": 97, "unit": "%"}, {"measurement": "inhibition in vivo at 10 mg/kg", "setting": "[2]; MPE", "value": 49, "unit": "%"}]}
{"smiles": "O=C(NCC1CC2CCC1C2)c1cccnc1SCCCc1cc(F)c(F)c(F)c1", "note": "(stereo not shown) [compound 68, N-(5-Bicyclo[2.2.1]heptanyl-methyl)-2-[3-(3,4,5-trifluoro-phenyl)-propylsulfanyl]-pyridine-3-carboxylic acid amide]", "values": [{"measurement": "pEC50", "setting": "[1]", "value": 7.19}, {"measurement": "Emax", "setting": "[1]", "value": 280, "unit": "%"}, {"measurement": "inhibition in vivo at 10 mg/kg", "setting": "[2]; MPE", "value": 32, "unit": "%"}]}
{"smiles": "CC(CCc1cccc(C(F)(F)F)c1)Sc1ncccc1C(=O)NCc1cccs1", "note": "(stereo not shown) [compound 107, 2-[[1-Methyl-3-[3-(trifluoromethyl)phenyl]-propyl]sulfanyl]-N-(thiophen-2-yl-methyl)-pyridine-3-carboxylic acid amide]", "values": [{"measurement": "pEC50", "setting": "[1]", "value": 7.24}, {"measurement": "Emax", "setting": "[1]", "value": 119, "unit": "%"}, {"measurement": "inhibition in vivo at 21.5 mg/kg", "setting": "[2]; dose 21.5 mg/kg, MPE", "value": 20, "unit": "%"}]}
{"smiles": "CC(C)(C)CCNC(=O)c1cccnc1SCCC(F)(F)c1ccc(F)cc1", "note": "[compound 116, 2-[[3,3-Difluoro-3-(4-fluorophenyl)-propyl]sulfanyl]-N-(3,3-dimethyl-butyl)-pyridine-3-carboxylic acid amide]", "values": [{"measurement": "pEC50", "setting": "[1]", "value": 7.21}, {"measurement": "Emax", "setting": "[1]", "value": 186, "unit": "%"}, {"measurement": "ED50", "setting": "[2]", "value": 5.4, "unit": "mg/kg"}]}
{"smiles": "O=C(NCc1ccc(F)cc1)c1cccnc1SCCC(F)(F)c1ccc(F)cc1", "note": "[compound 124, 2-[[3,3-Difluoro-3-(4-fluorophenyl)-propyl]sulfanyl]-N-[(4-fluorophenyl)-methyl]-pyridine-3-carboxylic acid amide]", "values": [{"measurement": "pEC50", "setting": "[1]", "value": 7.77}, {"measurement": "Emax", "setting": "[1]", "value": 114, "unit": "%"}, {"measurement": "ED50", "setting": "[2]", "value": 3.5, "unit": "mg/kg"}]}
{"smiles": "CC(C)CCNC(=O)c1cccnc1SCCCc1ccc(F)cc1", "note": "[compound 133, 2-[3-(4-Fluorophenyl)-propylsulfanyl]-N-(3-methyl-butyl)-pyridine-3-carboxylic acid amide]", "values": [{"measurement": "pEC50", "setting": "[1]", "value": 6.97}, {"measurement": "Emax", "setting": "[1]", "value": 185, "unit": "%"}, {"measurement": "inhibition in vivo at 10 mg/kg", "setting": "[2]; MPE", "value": 61, "unit": "%"}]}
{"smiles": "O=C(NCC1CCCCO1)c1cccnc1SCCCc1ccc(F)cc1", "note": "(stereo not shown) [compound 134, 2-[3-(4-Fluorophenyl)-propylsulfanyl]-N-(tetrahydro-pyran-2-yl-methyl)-pyridine-3-carboxylic acid amide]", "values": [{"measurement": "pEC50", "setting": "[1]", "value": 6.57}, {"measurement": "Emax", "setting": "[1]", "value": 224, "unit": "%"}, {"measurement": "inhibition in vivo at 21.5 mg/kg", "setting": "[2]; dose 21.5 mg/kg, MPE", "value": 40, "unit": "%"}]}
{"smiles": "O=C(NCC1C2CCC1CC2)c1cccnc1SCCC(F)(F)c1ccc(F)cc1", "note": "(stereo not shown) [compound 164, N-(7-Bicyclo[2.2.1]heptanyl-methyl)-2-[[3,3-difluoro-3-(4-fluorophenyl)-propyl]sulfanyl]-pyridine-3-carboxylic acid amide]", "values": [{"measurement": "pEC50", "setting": "[1]", "value": 7.49}, {"measurement": "Emax", "setting": "[1]", "value": 287, "unit": "%"}, {"measurement": "inhibition in vivo at 4.64 mg/kg", "setting": "[2]; MPE", "value": 20, "unit": "%"}]}
{"smiles": "CC(C)CCNC(=O)c1cccnc1SCCC(F)(F)c1ccc(F)cc1", "note": "[compound 169]", "values": [{"measurement": "pEC50", "setting": "[1]", "value": 7.72}, {"measurement": "Fluorimetry % efficacy (retigabine 50 μM = 100%)", "setting": "[1]", "value": 224, "unit": "%"}, {"measurement": "Low-intensity tail flick rat p.o. ED50", "setting": "[2]", "value": "ED50 2.7 mg/kg"}]}
{"smiles": "CCCCNC(=O)c1cccnc1SCCC(F)(F)c1ccc(F)cc1", "note": "[compound 170, N-Butyl-2-[[3,3-difluoro-3-(4-fluorophenyl)-propyl]sulfanyl]-pyridine-3-carboxylic acid amide]", "values": [{"measurement": "pEC50", "setting": "[1]", "value": 7.62}, {"measurement": "Emax", "setting": "[1]", "value": 229, "unit": "%"}, {"measurement": "inhibition in vivo at 4.64 mg/kg", "setting": "[2]; MPE", "value": 20, "unit": "%"}]}
{"smiles": "O=C(NCC1CCCCO1)c1cccnc1SCCC(F)(F)c1ccc(F)cc1", "note": "(stereo not shown) [compound 180, 2-[[3,3-Difluoro-3-(4-fluorophenyl)-propyl]sulfanyl]-N-(tetrahydro-pyran-2-yl-methyl)-pyridine-3-carboxylic acid amide]", "values": [{"measurement": "pEC50", "setting": "[1]", "value": 7.33}, {"measurement": "Emax", "setting": "[1]", "value": 224, "unit": "%"}, {"measurement": "inhibition in vivo at 10 mg/kg", "setting": "[2]; MPE", "value": 64, "unit": "%"}]}
{"smiles": "O=C(NCc1ccc(F)cc1)c1cccnc1SCCCc1cccc(C(F)(F)F)c1", "note": "[compound 207, N-[(4-Fluorophenyl)-methyl]-2-[3-[3-(trifluoromethyl)phenyl]-propylsulfanyl]-pyridine-3-carboxylic acid amide]", "values": [{"measurement": "pEC50", "setting": "[1]", "value": 7.47}, {"measurement": "Emax", "setting": "[1]", "value": 119, "unit": "%"}]}
{"smiles": "CC(C)CCNC(=O)c1cccnc1SCCCc1cccc(C(F)(F)F)c1", "note": "[compound 208, N-(3-Methyl-butyl)-2-[3-[3-(trifluoromethyl)phenyl]-propylsulfanyl]-pyridine-3-carboxylic acid amide]", "values": [{"measurement": "pEC50", "setting": "[1]", "value": 7.57}, {"measurement": "Emax", "setting": "[1]", "value": 207, "unit": "%"}]}
{"smiles": "CC(C)CCNC(=O)c1cccnc1SCCC(F)(F)c1ccc(F)c(F)c1", "note": "[compound 209, 2-[[3-(3,4-Difluoro-phenyl)-3,3-difluoro-propyl]sulfanyl]-N-(3-methyl-butyl)-pyridine-3-carboxylic acid amide]", "values": [{"measurement": "pEC50", "setting": "[1]", "value": 8.05}, {"measurement": "Emax", "setting": "[1]", "value": 228, "unit": "%"}]}
{"smiles": "O=C(NCC1C2CCC1CC2)c1cccnc1SCCC(F)(F)c1ccc(F)c(F)c1", "note": "(stereo not shown) [compound 210, N-(7-Bicyclo[2.2.1]heptanyl-methyl)-2-[[3-(3,4-difluoro-phenyl)-3,3-difluoro-propyl]sulfanyl]-pyridine-3-carboxylic acid amide]", "values": [{"measurement": "pEC50", "setting": "[1]", "value": 7.85}, {"measurement": "Emax", "setting": "[1]", "value": 276, "unit": "%"}]}
{"smiles": "O=C(NCCO)c1cccnc1SCCC(F)(F)c1ccc(F)cc1", "note": "[compound 211, 2-[[3,3-Difluoro-3-(4-fluorophenyl)-propyl]sulfanyl]-N-(2-hydroxy-ethyl)-pyridine-3-carboxylic acid amide]", "values": [{"measurement": "pEC50", "setting": "[1]", "value": 5.05}, {"measurement": "Emax", "setting": "[1]", "value": 87, "unit": "%"}]}
